Source: US8623896B2, “Insecticidal compounds” (Syngenta Crop Protection, LLC, priority 2007, dated 2014)

Assays:
Type in all cases: in vivo
Details in all cases: same protocol, 200 ppm
[1] = system: Thrips tabaci (Onion Trips); assay: Thrips tabaci sunflower leaf disc spray test
[2] = system: Tetranychus urticae (Two-Spotted Spider Mite); assay: Tetranychus urticae bean leaf disc spray test
Text: Bean leaf discs on agar in 24-well microtiter plates were sprayed with test solutions at an application rate of 200 ppm. After drying, the leaf discs are infested with mite populations of mixed ages. 8 days later, discs are checked for egg mortality, larval mortality, and adult mortality.

[3] = system: Diabrotica balteata (Corn Root Worm); assay: Diabrotica balteata larvae test on artificial diet
Experimental: A 24-well microtiter plate (MTP) with artificial diet was treated with test solutions at an application rate of 200 ppm (concentration in well 18 ppm) by pipetting. After drying, the MTP's were infested with L2 larvae (6-10 per well). After an incubation period of 5 days, samples were checked for larval mortality and growth regulation.

[4] = system: Spodoptera littoralis (Egyptian Cotton Leafworm); assay: Spodoptera littoralis cotton leaf disc spray test
Text: Cotton leaf discs were placed on agar in a 24-well microtiter plate and sprayed with test solutions at an application rate of 200 ppm. After drying, the leaf discs were infested with 5 L1 larvae. The samples were checked for mortality, feeding behavior, and growth regulation 3 days after treatment (DAT).

[5] = system: Heliothis virescens (Tobacco Budworm); assay: Heliothis virescens egg test on artificial diet
Experimental: Eggs (0-24 h old) were placed in 24-well microtiter plate on artificial diet and treated with test solutions at an application rate of 200 ppm (concentration in well 18 ppm) by pipetting. After an incubation period of 4 days, samples were checked for egg mortality, larval mortality, and growth regulation.

[6] = system: Plutella xylostella (Diamond Back Moth); assay: Plutella xylostella larvae test on artificial diet
Experimental: 24-well microtiter plate (MTP) with artificial diet was treated with test solutions at an application rate of 200 ppm (concentration in well 18 ppm) by pipetting. After drying, the MTP's were infested with L2 larvae (7-12 per well). After an incubation period of 6 days, samples were checked for larval mortality and growth regulation.

Measured: effect on mortality, feeding behavior, or growth regulation

CC1(NC(=O)c2ccc(C3=NOC(c4cc(Cl)cc(Cl)c4)(C(F)(F)F)C3)cc2C#N)CSC1 (stereo not drawn) [A18]
little or no effect: [1] | [2] | [3] | [4] | [5] | [6]

N#Cc1cc(C2=NOC(c3cc(Cl)cc(Cl)c3)(C(F)(F)F)C2)ccc1C(=O)NC1CSC1 (stereo not drawn) [A19]
little or no effect: [1] | [2] | [3] | [4] | [5] | [6]

Cc1cc(C2=NOC(c3cc(Cl)cc(Cl)c3)(C(F)(F)F)C2)ccc1C(=O)NCC1CCN1Cc1ccccc1 (stereo not drawn) [B2]
little or no effect: [1] | [2] | [3] | [4] | [5] | [6]
